This passage reports EC50 and IC50 results from US20230183215A1, “Notch Inhibitors and Uses Thereof” (StemSynergy Therapeutics, Inc., priority 2020, published 2023).

Structures are written as SMILES. Counter-ions that a name gives are not always drawn.

Test [1] has as its system OE33 Esophageal Adenocarcinoma cell line. Nature of the test: OE33 Colony Formation Assay. Format: cell-based. The note with it: Homo sapiens, 200 cells/well, compound every 48 hours for 7 days, CellTiter-Glo. The procedure: OE33 Colony Formation Assay:
The OE33 Esophageal Adenocarcinoma cell line was cultured and plated into 96-well tissue culture plates under sparse conditions (200 cells/well). Test compounds were serially diluted in DMSO and then into culture media (final DMSO concentration=0.1%). Compound/media was then added to cells every 48 hours for a total of 7 days. Clonogenic growth was assessed using the CellTiter-Glo reagent, according to manufacturer (Promega) specifications. Percent inhibition was calculated as the percent of luminescence normalized to control (0.1% DMSO) wells. Nonlinear regression curve fitting was performed using GraphPad Prism software to determine EC50's.

A further test deals with T1, Notch1 (Homo sapiens, UniProt P46531).
T1 construct: pLV[Tet]-Puro-TRE3G>Notch1-ICD; expressed in transfected cells; host or cells: 293A cells
The test can be described thus: Notch1 Reporter Assay (CSL-responsive luciferase, doxycycline-induced Notch-ICD in 293A cells). It counts as cell-based. The note with it: 25 ng/mL Dox, 24 h, luciferase normalized to cell viability. The procedure: 293A cells expressing 1) pCMV-Tet-On 3G, 2) pLV[Tet]-Puro-TRE3G>Notch1-ICD, 3) pLV[Tet]-Puro-TRE3G>Notch2-ICD, 4) pLV[Tet]-Puro-TRE3G>Notch3-ICD, and 5) pCSL-RElement-Luc were used. When Doxycycline is added, the Tet-ON gene activates expression of hNotch1ICD, which together with endogenous NTC components binds to CSL responsive elements (pCSL-RElement-Luc) and expresses luciferase. 1×10^4 cells are plated in 100 μL (96-well format). 24 h later, compounds (10 mM stock in DMSO) are diluted in DMSO to 200×, then added (5 ul into 1 mL) to cell culture media containing 50 ng/mL Dox. This is then added 1:1 to cells. Final DMSO=0.25%, Dox=25 ng/mL. After 24 h, media is discarded, and cells are lysed in passive lysis buffer (Promega). Cells are rocked at room temperature for 15 min and then lysate is divided for luciferase assay (Luciferase Assay System, Promega) and cell viability (CellTiter Glo 2.0, Promega). Raw luciferase is normalized to cell viability, and then scaled to DMSO wells. Results are analyzed and IC50's are determined in GraphPad by nonlinear regression curve fitting (4 parameter) of dose response curves.

T1 sequence (P46531 1754-2555 limits assumed): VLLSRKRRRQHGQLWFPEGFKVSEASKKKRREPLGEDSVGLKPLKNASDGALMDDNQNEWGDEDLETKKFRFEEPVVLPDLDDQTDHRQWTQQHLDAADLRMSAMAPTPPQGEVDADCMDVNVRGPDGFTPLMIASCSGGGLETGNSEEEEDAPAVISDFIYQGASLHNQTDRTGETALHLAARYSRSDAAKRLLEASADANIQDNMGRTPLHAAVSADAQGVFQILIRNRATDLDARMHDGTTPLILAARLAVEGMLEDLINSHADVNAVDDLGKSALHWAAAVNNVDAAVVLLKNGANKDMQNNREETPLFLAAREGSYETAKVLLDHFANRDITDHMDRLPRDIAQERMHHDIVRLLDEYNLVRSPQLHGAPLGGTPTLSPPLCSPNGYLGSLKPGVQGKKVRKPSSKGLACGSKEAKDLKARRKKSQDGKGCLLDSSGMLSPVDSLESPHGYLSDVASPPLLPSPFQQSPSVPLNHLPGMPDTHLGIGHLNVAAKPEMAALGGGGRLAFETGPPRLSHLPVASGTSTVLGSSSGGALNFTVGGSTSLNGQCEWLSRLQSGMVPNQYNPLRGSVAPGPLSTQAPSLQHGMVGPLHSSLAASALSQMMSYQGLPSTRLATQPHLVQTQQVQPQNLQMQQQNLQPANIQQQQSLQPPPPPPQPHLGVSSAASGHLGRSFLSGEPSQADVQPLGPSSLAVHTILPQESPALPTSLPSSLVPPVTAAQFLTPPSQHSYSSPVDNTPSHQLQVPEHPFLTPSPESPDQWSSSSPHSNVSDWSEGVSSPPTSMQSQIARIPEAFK

The compound `COc1cc(-c2cc(C(F)(F)F)cc3c2n(C)c(=O)n3CC(=O)Nc2ccc(Cl)cc2)cc(F)c1OCc1nnc[nH]1` [SSTN-489, 2-(4-(4-((4H-1,2,4-triazol-3-yl)methoxy)-3-fluoro-5-methoxyphenyl)-3-methyl-2-oxo-6-(trifluoromethyl)-2,3-dihydro-1H-benzo[d]imidazol-1-yl)-N-(4-chlorophenyl)acetamide hydrochloride] gave an EC50 in test [1] of 2.1 µM. Further, the half-maximal inhibitory concentration (IC50) at Notch1 was 7.9 µM.

As for `COc1cc(-c2cc(C(F)(F)F)cc3c2n(C)c(=O)n3CC(=O)Nc2cccc(Cl)c2)cc(F)c1OCc1nnc[nH]1` [SSTN-490, 2-(4-(4-((4H-1,2,4-triazol-3-yl)methoxy)-3-fluoro-5-methoxyphenyl)-3-methyl-2-oxo-6-(trifluoromethyl)-2,3-dihydro-1H-benzo[d]imidazol-1-yl)-N-(3-chlorophenyl)acetamide hydrochloride], a half-maximal effect in test [1] (EC50) was put at 1.7 µM. Also, on Notch1, the IC50 amounted to 5.5 µM.

As to `COc1cc(-c2cc(C(F)(F)F)cc3c2n(C)c(=O)n3CC(=O)Nc2ccccc2Cl)cc(F)c1OCc1nnc[nH]1` [SSTN-491, 2-(4-(4-((4H-1,2,4-triazol-3-yl)methoxy)-3-fluoro-5-methoxyphenyl)-3-methyl-2-oxo-6-(trifluoromethyl)-2,3-dihydro-1H-benzo[d]imidazol-1-yl)-N-(2-chlorophenyl)acetamide hydrochloride], in test [1], the EC50 amounted to 4.6 µM. The compound also registered an IC50 on Notch1 of 11.1 µM.

`COc1cccc(NC(=O)Cn2c(=O)n(C)c3c(-c4cc(F)c(OCc5nnc[nH]5)c(OC)c4)cc(C(F)(F)F)cc32)c1` [SSTN-492, 2-(4-(4-((4H-1,2,4-triazol-3-yl)methoxy)-3-fluoro-5-methoxyphenyl)-3-methyl-2-oxo-6-(trifluoromethyl)-2,3-dihydro-1H-benzo[d]imidazol-1-yl)-N-(3-methoxyphenyl)acetamide hydrochloride]: the midpoint of the response in test [1], the EC50, lay at 6.6 µM. Besides, the IC50 against Notch1 stood at 6.3 µM.

With `COc1ccccc1NC(=O)Cn1c(=O)n(C)c2c(-c3cc(F)c(OCc4nnc[nH]4)c(OC)c3)cc(C(F)(F)F)cc21` [SSTN-493, 2-(4-(4-((4H-1,2,4-triazol-3-yl)methoxy)-3-fluoro-5-methoxyphenyl)-3-methyl-2-oxo-6-(trifluoromethyl)-2,3-dihydro-1H-benzo[d]imidazol-1-yl)-N-(2-methoxyphenyl)acetamide hydrochloride], it took 2.4 µM to reach a half-maximal effect in test [1] (EC50). Further, on Notch1, the IC50 was determined as 8.5 µM.

Consider `COc1cc(-c2cc(C(F)(F)F)cc3c2n(C)c(=O)n3CC(=O)Nc2ccc(F)cc2F)cc(F)c1OCc1nnc[nH]1` [SSTN-494, 2-(4-(4-((4H-1,2,4-triazol-3-yl)methoxy)-3-fluoro-5-methoxyphenyl)-3-methyl-2-oxo-6-(trifluoromethyl)-2,3-dihydro-1H-benzo[d]imidazol-1-yl)-N-(2,4-difluorophenyl)acetamide hydrochloride], for which the EC50 in test [1] is 7.1 µM. At Notch1, this compound registered an IC50 of 12.1 µM.

`COc1cc(-c2cc(C(F)(F)F)cc3c2n(C)c(=O)n3CC(=O)Nc2cccc(C(F)(F)F)c2)cc(F)c1OCc1nnc[nH]1` [SSTN-495, 2-(4-(4-((4H-1,2,4-triazol-3-yl)methoxy)-3-fluoro-5-methoxyphenyl)-3-methyl-2-oxo-6-(trifluoromethyl)-2,3-dihydro-1H-benzo[d]imidazol-1-yl)-N-(3-(trifluoromethyl)phenyl)acetamide hydrochloride]: the response in test [1] was half-maximal at 1.5 µM (EC50). Besides, the IC50 against Notch1 is 4.3 µM.

In the case of `COc1cc(-c2cc(C(F)(F)F)cc3c2n(C)c(=O)n3CC(=O)Nc2cccc(F)c2)cc(F)c1OCc1nnc[nH]1` [SSTN-496, 2-(4-(4-((4H-1,2,4-triazol-3-yl)methoxy)-3-fluoro-5-methoxyphenyl)-3-methyl-2-oxo-6-(trifluoromethyl)-2,3-dihydro-1H-benzo[d]imidazol-1-yl)-N-(3-fluorophenyl)acetamide hydrochloride], in test [1], a half-maximal effect (EC50) was put at 3.7 µM. The same compound yielded an IC50 at Notch1 of 6 µM.
